Results on 3 compounds are retold here after article PMC11785709, “Angelica gigas Nakai (Korean Dang-gui) Root Alcoholic Extracts in Health Promotion and Disease Therapy – active Phytochemicals and In Vivo Molecular Targets” (Pharmaceutical Research, 2025).

Broadly, the IC50 is the midpoint of a concentration-inhibition curve. Usually Ki stands for a dissociation constant, usually derived from enzyme kinetics or from competition with a known ligand.

SMILES strings stand for the structures. In brackets after ≈: the same amount, converted by molar mass. Several values for one entry are separate records, joined by “and”; a condition that tells them apart may be missing. Equal entries are not always repeated. Entries after “also recorded” stand apart in the source; their conditions may differ. Where two headings read alike, the source gives them in different places.

In data set [1] the test system is global cerebral ischemia BOCCA model. Set-up: method as in PMID 33918660. Conditions: cited from earlier work.
Data set [2] concerns collagen/epinephrine-induced thromboembolism. Details: method as in PMID 34575088. Conditions: D at 12.5 mg/kg; cited from earlier work.
The subject of data set [3] is most sensitive bacterial strain. The experiment in a line: bactericidal activity of D, MIC. Conditions: converted value in brackets; read-out: minimal inhibitory concentration. The data set is classed as cell-based.
Data set [4] relates to kainic acid (KA)-induced status epilepticus. Set-up: method as in PMID 25171200. Conditions: D ip 20 mg/kg 30 min prior to KA; cited from earlier work.
For another data set, the system named is HepG2 cells. Set-up: method as in earlier work. Conditions: free fatty acid mixture (oleate:palmitate = 2:1); cited from earlier work.
The test system of a further data set is hair growth. Set-up: method as in PMID 32823713. Conditions: cited from earlier work.
For data set [5] the following is noted: oral AGN 100 mg per rat (~ 300 mg/kg bw); cited from earlier work.
The conditions of data set [6]: cited from earlier work.
Another data set deals with human MAO-A. Set-up: method as in PMID 28109809. Conditions: cited from earlier work.
Another data set concerns paclitaxel-CINP. Details: method as in PMID 33806325. Conditions: cited from earlier work.
A further data set deals with MAO-B. Set-up: method as in PMID 28109809. Conditions: screened at 10 μM; cited from earlier work.
Another data set concerns GDH. Set-up: method as in PMID 36455296. The conditions noted are these: read-out: GDH inhibition IC50; cited from earlier work.
A further data set concerns CYP2C19 and 3A4. The conditions noted are these: cited from earlier work.
Data set [7] relates to high fat-diet induced obesity. Set-up: method as in PMID 21972114. Conditions: HFD plus D 200 mg/kg (ppm), 7 weeks; cited from earlier work.
For data set [8], the system named is bacteria. Details: method as in doi:10.7324/JAPS201331012. Conditions: cited from earlier work.
The conditions of data set [9]: cited from earlier work. The source holds these as a separate data set.
For data set [10], the system named is adipose stem cells (ASCs). Details: method as in PMID 31861646. Conditions: cited from earlier work.
In a further data set the test system is AR; ERα. The conditions noted are these: cited from earlier work.
The test system of another data set is carboxyesterase-2 (CES2). Conditions: cited from earlier work.
Data set [11] deals with bacteria. The experiment in a line: bactericidal activity of D, MIC (Thailand group). The data set is classed as cell-based. Conditions: converted value in brackets.
In data set [12] the test system is most sensitive bacterial strain. Set-up: method as in PMID 12877552. Conditions: cited from earlier work.
Data set [13] has as its system destabilization of medial meniscus (DMM) OA. Details: method as in PMID 33878544. The conditions noted are these: daily gavage, 20 mg/kg, 8 weeks after DMM; cited from earlier work.
Another data set deals with TRPV1. Details: method as in PMID 33806325. The conditions noted are these: capsaicin-induced, F11 cell culture; read-out: TRPV1-Ca2+ release IC50; cited from earlier work.
The subject of data set [14] is AChE. Details: method as in PMID 11374978. Conditions: read-out: AChE inhibition IC50; cited from earlier work.
The subject of data set [15] is bone marrow stem cells (BMSCs). Details: method as in PMID 37866743. The conditions noted are these: cell culture exposure; cited from earlier work.
A further data set deals with TNBS-induced colitis. Set-up: method as in PMID 39042157. Conditions: cited from earlier work.
The subject of data set [16] is MDA-MB231 sc breast cancer xenograft. The conditions noted are these: 30 mg/kg ip twice weekly, 5-week assay; cited from earlier work.
The subject of a further data set is HFD-induced obese mice. Set-up: method as in PMID 34165214. The conditions noted are these: daily oral 10 and 20 mg/kg, 5 weeks; cited from earlier work.
The subject of another data set is breast cancer cell. Details: method as in PMID 36830050. The conditions noted are these: concentration-dependent; cited from earlier work.
The conditions of data set [17]: rat, in vivo, iv; cited from earlier work.
Another data set relates to OVX-induced bone loss. Set-up: method as in PMID 37866743. The conditions noted are these: oral nodakenin; cited from earlier work.
Data set [18] relates to RANKL-induced osteoclastogenesis. Set-up: method as in PMID 37866743. Conditions: cell culture model; cited from earlier work.
The conditions of data set [19]: rat, in vivo, po, cited from earlier work.
Data set [20] has as its system scopolamine-induced memory disruption. Details: method as in PMID 17382968. The conditions noted are these: 10 mg/kg, po; cited from earlier work.
A further data set deals with CP-treated mice. Details: method as in PMID 34875347. Conditions: cited from earlier work.
Data set [21] deals with AChE. Set-up: method as in PMID 17382968. The conditions noted are these: ex vivo, 6 h after dose; cited from earlier work.
Data set [22] relates to AChE. Details: method as in PMID 17382968. Conditions: in vitro test; cited from earlier work.
Data set [23] deals with acute thermal pain models and CINP. Set-up: method as in PMID 36249788. Conditions: once-daily ip; hot plate, tail-flick and CINP mice; cited from earlier work.
Setting [24] is: topical 0.15% D or 2% AGN root extract.

As for `CC(C)=CC(=O)O[C@H]1Cc2cc3ccc(=O)oc3cc2OC1(C)C` [D, decursin], the “protection of CA1 pyramidal neurons” value in data set [1] (oral post-ischemia, AGN 350 and 400 mg/kg or D 25 mg/kg) is “spared the pyramidal neurons from ischemic death; also recorded: detectable protection”. Further, in data set [1] (post-treatment, 5 days following BOCCA), the “spatial memory (8-ARMT) and learning memory (PAT)” value was “preserved spatial memory”. The protection against thromboembolism result in [2] was “replicated the protective effect”. For the same compound, the MIC in data set [3] was approximately 38 µM (≈ 12.5 µg/mL); with bacteria [8] it was ~ 32 mg/L; in the data set with bacteria [11], approximately 98 µM (≈ 32.2 µg/mL). In addition, in data set [4], the behavioral seizure activity entry is on record as “decreased behavioral seizure activity”. Also, the lipid accumulation result with HepG2 cells is listed as “suppressed lipid accumulation”. The “time at which hair growth was complete” value in the data set with hair growth (setting [24]) is 17 days. Besides, the “time from which hair growth was visibly facilitated” value in the data set with hair growth (setting [24]) is on record as 7 days. The hair growth entry with hair growth (topical twice a day 17 days, 0.15% D or 2% AGN root extract) is “promoted hair growth in equal efficacy”. Further, the “elimination of plasma D” value in [5] was “barely detectable after 7 h”. Besides, the “time of peak absorption, plasma D” value in [5] is “around 4 h”. Further, the “relative circulating Cmax and AUC” value in data set [6] (in vivo) is given as approximately 1 ×. The “relative plasma Cmax” value in data set [6] (in vivo) is recorded as 1 x. Also, the Cmax in data set [6] (read-out: mean peak concentration Cmax, 10 men and 10 women, 800 mg INM176 AGN oral) is 5.3 nM. The IC50 in the data set with human MAO-A (read-out: MAO-A inhibition IC50) is 1.89 µM; with GDH it was ~1 µM and 1 µM; in the data set with AR; ERα (antagonist/degrader), approximately 5 µM; with TRPV1 it was approximately 1 µM; in the data set on AChE [14], 390 µM. Further, the inhibition constant Ki on human MAO-A (reversible and competitive inhibitor) is 0.17 µM. For the same compound, the mechanical allodynia relief entry in the data set on paclitaxel-CINP (first it injection of D 50 mg/kg) was “no relief”. Besides, the “duration of blunted allodynia” value with paclitaxel-CINP (second and third it injections) was “up to 3 h”. Further, the “inhibitory activity on MAO-B” value in the data set on MAO-B was “lacked any inhibitory activity”. For the same compound, the “Cyp isoforms for metabolism to DOH” value in the data set on CYP2C19 and 3A4 was “major human isoforms”. In [7], the weight gain entry is given as “decreased weight gain”. For the same compound, the t1/2 in [9] (4.6 g AGN root powder per subject) is listed as 3.03 h. Moreover, in [9] (in vivo), the tmax is on record as 0.44 h. In addition, the adipocyte differentiation entry in data set [10] is “significantly inhibited adipocyte differentiation”. Further, in the data set with AR; ERα (responsive cancer cell culture models), the “mode of action on AR and ERα” value is listed as “antagonists/degraders”. Moreover, the “CES2 contribution to metabolism to DOH” value in the data set with carboxyesterase-2 (CES2) is on record as “further contributed”. Also, in data set [12], the minimal inhibitory concentration is given as ~ 12.5 mg/L. Besides, the “destruction of articular cartilage” value in [13] is listed as “attenuated the destruction of articular cartilage”.
As for `CC(C)(O[C@@H]1O[C@H](CO)[C@@H](O)[C@H](O)[C@H]1O)[C@H]1Cc2cc3ccc(=O)oc3cc2O1` [Nodakenin, nodakenin], the osteogenic differentiation entry in [15] is “promoted osteogenic differentiation”. Further, in the data set on TNBS-induced colitis (colon sample, 40 mg/kg), the “downregulation of COX-2 mRNA expression” value is listed as 1.98 fold, the “downregulation of IL-1β mRNA expression” value is 1.29 fold, the “downregulation of IL-18 mRNA expression” value is reported as 1.17 fold and the “downregulation of NFƙB mRNA expression” value was 1.24 fold. In the data set on TNBS-induced colitis (colon sample, 40 mg/kg), the “downregulation of NLRP3 mRNA expression” value is reported as 1.78 fold and the “downregulation of iNOS mRNA expression” value is recorded as 1.2 fold. For the same compound, the “disease activity index (DAI) score” value with TNBS-induced colitis (gavage 10, 20, and 40 mg/kg) is given as “lowered the DAI score”. The xenograft growth inhibition in data set [16] is reported as ~ 88%. For the same compound, the “suppression of weight gain, dyslipidemia and fatty liver” value in the data set on HFD-induced obese mice is given as “comparable potency to orlistat”. Further, in the data set on breast cancer cell, the “breast cancer cell viability” value is listed as “inhibited breast cancer cell viability”. For the same compound, the t1/2 in [17] was 3.3 h. In the data set on OVX-induced bone loss, the bone mass entry is “elevated mouse bone mass”. The osteoclastogenesis entry in [18] is listed as “inhibited RANKL-induced osteoclastogenesis”. Moreover, the t1/2 in [19] (2.5 mg/kg) is 4.6 h. In addition, in [19] (10 mg/kg), the t1/2 is listed as 6.2 h. The scopolamine-induced memory disruption result in [20] is “ameliorate”. Also, the “levels of IFN-γ, IL-12, IL-2, IL-6, and TNF-α in serum and spleen” value in the data set with CP-treated mice is “increased”. Further, the “brain slice AChE activity” value in the data set with AChE [21] is “lowered”. Moreover, the IC50 in the data set on AChE [22] was 84.7 µM. Further, in [9] (in vivo), the “apparent volume of distribution Vd” value is 2800 L and the t1/2 was 6.28 h. The IC50 with AChE [14] is 68 µM.
Turning to `CN1CC[C@]23c4c5ccc(O)c4O[C@H]2[C@@H](O)C=C[C@H]3[C@H]1C5` [morphine, reference compound], in data set [23], the “time to tolerance development” value is reported as less than 3 days.
